Data reported in patent US20090325959A1 (priority 2008, published 2009).
Like-named read-outs stand apart in the source and are kept apart here.

Experiments:
ROCK1 = target: T1, ROCK1 (Homo sapiens, UniProt Q13464); test: Rho kinase inhibition assay (IMAP fluorescence polarization), ROCK1; assay type: biochemical;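 note: kinase reaction run 60 min at room temperature, then phosphorylated substrate captured on IMAP beads for 30 min, with fluorescence polarization read in mP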
T1 construct: purchased Upstate/Chemicon 14-601
T1 sequence (Q13464 17-535 limits assumed): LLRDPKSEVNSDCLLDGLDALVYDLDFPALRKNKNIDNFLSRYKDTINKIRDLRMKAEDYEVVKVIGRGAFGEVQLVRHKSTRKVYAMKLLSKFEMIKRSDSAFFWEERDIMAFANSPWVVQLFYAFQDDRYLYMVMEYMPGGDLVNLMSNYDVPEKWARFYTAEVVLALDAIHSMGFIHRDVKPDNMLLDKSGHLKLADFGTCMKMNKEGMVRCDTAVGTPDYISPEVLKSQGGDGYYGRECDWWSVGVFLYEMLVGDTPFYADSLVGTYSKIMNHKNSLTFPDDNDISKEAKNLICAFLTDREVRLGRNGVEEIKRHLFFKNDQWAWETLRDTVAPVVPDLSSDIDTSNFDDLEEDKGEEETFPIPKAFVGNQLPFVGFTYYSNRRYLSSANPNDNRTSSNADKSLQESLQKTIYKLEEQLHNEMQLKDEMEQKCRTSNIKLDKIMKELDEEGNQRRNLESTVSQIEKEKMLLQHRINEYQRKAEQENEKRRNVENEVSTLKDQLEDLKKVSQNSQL
Experimental: (§1) Following the pre-incubation, 10 μM ATP was added to initiate the reaction. After 60 minutes at room temperature, Molecular Devices IMAP™ binding solution was added to bind phosphorylated substrate. After 30 minutes of incubation in the presence of the IMAP™ beads, the fluorescence polarization was read and the ratio was reported as mP. IC50 values for compounds and EC50 values for ATP were calculated using the Prism software from Graphpad.

ROCK2 = target: T2, ROCK2 (Homo sapiens, UniProt O75116); test: Rho kinase inhibition assay (IMAP fluorescence polarization), ROCK2; assay type: biochemical;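 note: kinase reaction started with 10 µM ATP and run 60 min at room temperature, then phosphorylated substrate captured on IMAP beads for 30 min and fluorescence polarization read in mP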
T2 construct: purchased Upstate/Chemicon 14-451
T2 sequence (O75116 11-552 limits assumed): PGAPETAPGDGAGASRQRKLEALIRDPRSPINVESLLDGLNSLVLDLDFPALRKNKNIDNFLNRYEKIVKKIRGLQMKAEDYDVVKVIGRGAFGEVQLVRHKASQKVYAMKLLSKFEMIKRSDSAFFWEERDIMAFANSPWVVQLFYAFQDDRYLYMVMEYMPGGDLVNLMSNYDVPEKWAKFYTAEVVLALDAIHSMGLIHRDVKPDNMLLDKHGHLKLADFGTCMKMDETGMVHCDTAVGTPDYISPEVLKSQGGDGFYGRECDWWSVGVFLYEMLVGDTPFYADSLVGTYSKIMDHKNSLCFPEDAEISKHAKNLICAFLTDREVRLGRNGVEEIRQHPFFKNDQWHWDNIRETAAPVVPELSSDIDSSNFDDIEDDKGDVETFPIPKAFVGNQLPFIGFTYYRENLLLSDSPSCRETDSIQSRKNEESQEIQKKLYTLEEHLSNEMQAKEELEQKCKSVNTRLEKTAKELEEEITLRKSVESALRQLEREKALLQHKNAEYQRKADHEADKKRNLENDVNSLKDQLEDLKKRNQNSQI
Experimental: as §1

[1] = 10 μM ATP, read-out: ROCK2 Ki, Avg

**Q.** Which Ki (ROCK1; Avg, 10 μM ATP) does the source give for `NS(=O)(=O)c1ccc2nc(CN3CC[C@@H](Nc4cccc5cnccc45)C3)[nH]c2c1` [Compound 2.087, (R)-2-((3-(isoquinolin-5-ylamino)pyrrolidin-1-yl)methyl)-1H-benzo[d]imidazole-6-sulfonamide] here?
**A.** 896 nM

**Q.** What about the Ki (ROCK2; [1]) of the same compound?
**A.** 59.3 nM

**Q.** What does the source list for `OCCOc1ccc(CN2CCC[C@H](Nc3ccc4[nH]ncc4c3)C2)cc1` [Compound 1.228]?
**A.** Ki (ROCK1; Avg, 10 μM ATP): 1880 nM; Ki (ROCK2; [1]): 140 nM

**Q.** `Cn1ccnc1CN1CCC[C@H](Nc2ccc3[nH]ncc3c2)C1` [Compound 1.257, (S)-N-(1-((1-methyl-1H-imidazol-2-yl)methyl)piperidin-3-yl)-1H-indazol-5-amine] was tested. Which Ki (ROCK1; Avg, 10 μM ATP) did it give?
**A.** 1270 nM

**Q.** And the Ki (ROCK2; [1])?
**A.** 168 nM

**Q.** What does the source list for `O=C(OCCOc1cccc(CN2CCC[C@H](Nc3ccc4[nH]ncc4c3)C2)c1)c1ccccc1` [Compound 1.224, (S)-2-(3-((3-(1H-indazol-5-ylamino)piperidin-1-yl)methyl)phenoxy)ethyl benzoate]?
**A.** Ki (ROCK1; Avg, 10 μM ATP): 487 nM; Ki (ROCK2; [1]): 77.5 nM

**Q.** Which Ki (ROCK2; [1]) does the source give for `NC(=O)COc1cccc(CN2CCC[C@@H](Nc3ccc4[nH]ncc4c3)C2)c1` [Compound 1.098, 2-(3-((3-(1H-indazol-5-ylamino)piperidin-1-yl)methyl)phenoxy)acetamide] here?
**A.** 25 nM

**Q.** For `Cc1c(CN2CCC[C@H](Nc3ccc4[nH]ncc4c3)C2)cccc1NS(=O)(=O)N(C)C` [Compound 1.275], which Ki (ROCK1; Avg, 10 μM ATP) is on record?
**A.** 402 nM

**Q.** And the Ki (ROCK1; average Ki)?
**A.** 402 nM

**Q.** How did the Ki (ROCK1; Avg, 10 μM ATP) turn out when `OCCn1ccc2cc(CN3CCC[C@H](Nc4ccc5[nH]ncc5c4)C3)ccc21` [Compound 1.269, (S)-2-(5-((3-(1H-indazol-5-ylamino)piperidin-1-yl)methyl)-1H-indol-1-yl)ethanol] was run?
**A.** 239 nM

**Q.** What about the Ki (ROCK2; [1]) of the same compound?
**A.** 22.8 nM

**Q.** With `Cc1ccc(CN2CC[C@@H](Nc3cccc4cnccc34)C2)cc1OCC(=O)O` [Compound 2.073, (R)-2-(5-((3-(isoquinolin-5-ylamino)pyrrolidin-1-yl)methyl)-2-methylphenoxy)acetic acid] as the compound, how does the Ki (ROCK1; Avg, 10 μM ATP) read?
**A.** 12.7 nM

**Q.** And the Ki (ROCK1; average Ki)?
**A.** 12.7 nM

**Q.** What about the Ki (ROCK2; [1]) of the same compound?
**A.** 4.2 nM

**Q.** What about the Ki (ROCK2; average Ki, read-out: ROCK2 Ki) of the same compound?
**A.** 4.2 nM

**Q.** What does the source list for `OCc1ccc(CN2CCC[C@@H](Nc3ccc4[nH]ncc4c3)C2)cc1` [Compound 1.232, (R)-(4-((3-(1H-indazol-5-ylamino)piperidin-1-yl)methyl)phenyl)methanol]?
**A.** Ki (ROCK1; Avg, 10 μM ATP): 137 nM; Ki (ROCK2; [1]): 20.8 nM

**Q.** With `OCC1COc2ccc(CN3CCC[C@@H](Nc4ccc5[nH]ncc5c4)C3)cc2O1` (stereo partly drawn) [Compound 1.264, (7-(((R)-3-(1H-indazol-5-ylamino)piperidin-1-yl)methyl)-2,3-dihydrobenzo[b][1,4]dioxin-2-yl)methanol] as the compound, how does the Ki (ROCK1; Avg, 10 μM ATP) read?
**A.** 494 nM

**Q.** What about the Ki (ROCK2; [1]) of the same compound?
**A.** 59.4 nM

**Q.** Which Ki (ROCK1; Avg, 10 μM ATP) does the source give for `OCCn1ccc2cc(CN3CCC[C@@H](Nc4ccc5[nH]ncc5c4)C3)ccc21` [Compound 1.268, (R)-2-(5-((3-(1H-indazol-5-ylamino)piperidin-1-yl)methyl)-1H-indol-1-yl)ethanol] here?
**A.** 404 nM

**Q.** And the Ki (ROCK2; [1])?
**A.** 40.7 nM

**Q.** How did the Ki (ROCK1; Avg, 10 μM ATP) turn out when `Cc1nc(CN2CCC[C@H](Nc3ccc4[nH]ncc4c3)C2)c(C)o1` [Compound 1.279, (S)-N-(1-((2,5-dimethyloxazol-4-yl)methyl)piperidin-3-yl)-1H-indazol-5-amine] was run?
**A.** 456 nM

**Q.** And the Ki (ROCK2; [1])?
**A.** 34.2 nM

**Q.** Which Ki (ROCK1; Avg, 10 μM ATP) does the source give for `Cc1ccc(CN2CCC[C@@H](Nc3ccc4[nH]ncc4c3)C2)cc1OCC(N)=O` [Compound 1.281] here?
**A.** 71.8 nM

**Q.** And the Ki (ROCK1; average Ki)?
**A.** 71.8 nM

**Q.** What about the Ki (ROCK2; [1]) of the same compound?
**A.** 7.4 nM

**Q.** What about the Ki (ROCK2; average Ki, read-out: ROCK2 Ki) of the same compound?
**A.** 7.4 nM

**Q.** With `c1cc(N[C@@H]2CCN(Cc3ccc4c(c3)OCCO4)C2)c2ccncc2c1` [Compound 2.056, (R)-N-(1-((2,3-dihydrobenzo[b][1,4]dioxin-6-yl)methyl)pyrrolidin-3-yl)isoquinolin-5-amine] as the compound, how does the Ki (ROCK1; Avg, 10 μM ATP) read?
**A.** 107 nM

**Q.** What about the Ki (ROCK2; [1]) of the same compound?
**A.** 48.7 nM

**Q.** Which Ki (ROCK1; Avg, 10 μM ATP) does the source give for `CCN(CC)C(=O)Nc1cccc(CN2CCC[C@@H](Nc3ccc4[nH]ncc4c3)C2)c1` [Compound 1.267, (R)-3-(3-((3-(1H-indazol-5-ylamino)piperidin-1-yl)methyl)phenyl)-1,1-diethylurea] here?
**A.** 98.8 nM

**Q.** And the Ki (ROCK2; [1])?
**A.** 23.9 nM

**Q.** Which results are given for `Clc1ccc(CN2CCC[C@H](Nc3ccc4[nH]ncc4c3)C2)cc1Cl` [Compound 1.080, (S)-N-(1-(3,4-dichlorobenzyl)piperidin-3-yl)-1H-indazol-5-amine]?
**A.** Ki (ROCK1; Avg, 10 μM ATP): 131 nM; Ki (ROCK2; [1]): 15.2 nM

**Q.** Which Ki (ROCK1; Avg, 10 μM ATP) does the source give for `C[C@@H](O)COc1cccc(CN2CCC[C@@H](Nc3ccc4[nH]ncc4c3)C2)c1` [Compound 1.116, (R)-1-(3-(((R)-3-(1H-indazol-5-ylamino)piperidin-1-yl)methyl)phenoxy)propan-2-ol] here?
**A.** 258 nM

**Q.** What about the Ki (ROCK2; [1]) of the same compound?
**A.** 48.9 nM

**Q.** With `Cc1ccc(CN2CC[C@@H](Nc3cccc4cnccc34)C2)cc1OCC(N)=O` [Compound 2.099, (R)-2-(5-((3-(isoquinolin-5-ylamino)pyrrolidin-1-yl)methyl)-2-methylphenoxy)acetamide] as the compound, how does the Ki (ROCK1; Avg, 10 μM ATP) read?
**A.** 15 nM

**Q.** And the Ki (ROCK1; average Ki)?
**A.** 15 nM

**Q.** And the Ki (ROCK2; [1])?
**A.** 3.8 nM

**Q.** And the Ki (ROCK2; average Ki, read-out: ROCK2 Ki)?
**A.** 3.8 nM

**Q.** What does the source list for `c1cc(N[C@@H]2CCN(Cc3cnccn3)C2)c2ccncc2c1` [Compound 2.086, (R)-N-(1-(pyrazin-2-ylmethyl)pyrrolidin-3-yl)isoquinolin-5-amine]?
**A.** Ki (ROCK1; Avg, 10 μM ATP): 1250 nM; Ki (ROCK2; [1]): 358 nM

**Q.** What does the source list for `NCc1cccc(CN2CCC[C@@H](Nc3ccc4[nH]ncc4c3)C2)c1` [Compound 1.235, (R)-N-(1-(3-(aminomethyl)benzyl)piperidin-3-yl)-1H-indazol-5-amine]?
**A.** Ki (ROCK1; Avg, 10 μM ATP): 1390 nM; Ki (ROCK2; [1]): 335 nM

**Q.** With `CCSc1ccc(CN2CCC[C@@H](Nc3ccc4[nH]ncc4c3)C2)cc1` [Compound 1.189, (R)-N-(1-(4-(ethylthio)benzyl)piperidin-3-yl)-1H-indazol-5-amine] as the compound, how does the Ki (ROCK1; Avg, 10 μM ATP) read?
**A.** 188 nM

**Q.** And the Ki (ROCK2; [1])?
**A.** 34.3 nM

**Q.** Which results are given for `c1cc(N[C@@H]2CCN(Cc3ccsc3)C2)c2ccncc2c1` [Compound 2.088, (R)-N-(1-(thiophen-3-ylmethyl)pyrrolidin-3-yl)isoquinolin-5-amine]?
**A.** Ki (ROCK1; Avg, 10 μM ATP): 38.7 nM; Ki (ROCK2; [1]): 13.6 nM

**Q.** With `OCCOc1cccc(CN2CCC(Nc3ccc4[nH]ncc4c3)CC2)c1` [Compound 1.130, 2-(3-((4-(1H-indazol-5-ylamino)piperidin-1-yl)methyl)phenoxy)ethanol] as the compound, how does the Ki (ROCK1; Avg, 10 μM ATP) read?
**A.** 577 nM

**Q.** What about the Ki (ROCK2; [1]) of the same compound?
**A.** 142 nM

**Q.** What does the source list for `COc1ccc(CN2CCC[C@H](Nc3cccc4cnccc34)C2)cc1` [Compound 2.053, (S)-N-(1-(4-methoxybenzyl)piperidin-3-yl)isoquinolin-5-amine]?
**A.** Ki (ROCK1; Avg, 10 μM ATP): 952 nM; Ki (ROCK2; [1]): 182 nM

**Q.** `COc1nccc2c(N[C@@H]3CCN(Cc4ccc(C)c(OCCO)c4)C3)cccc12` [Compound 2.094, (R)-2-(5-((3-(1-methoxyisoquinolin-5-ylamino)pyrrolidin-1-yl)methyl)-2-methylphenoxy)ethanol] was tested. Which Ki (ROCK1; Avg, 10 μM ATP) did it give?
**A.** 16600 nM

**Q.** Which results are given for `Cc1ccc(CN2CC[C@@H](Nc3cccc4cnccc34)C2)cc1NS(=O)(=O)N(C)C` [Compound 2.077]?
**A.** Ki (ROCK1; Avg, 10 μM ATP): 33.7 nM; Ki (ROCK1; average Ki): 33.7 nM

**Q.** How did the Ki (ROCK2; read-out: ROCK2 Ki, Avg) turn out when `NCc1ccc(CN2CCC[C@@H](Nc3ccc4[nH]ncc4c3)C2)cc1` [Compound 1.188, (R)-N-(1-(4-(aminomethyl)benzyl)piperidin-3-yl)-1H-indazol-5-amine] was run?
**A.** 653 nM

**Q.** How did the Ki (ROCK1; Avg, 10 μM ATP) turn out when `COc1c(CN2CC[C@@H](Nc3cccc4cnccc34)C2)cccc1NS(=O)(=O)N(C)C` [Compound 2.097] was run?
**A.** 35.4 nM

**Q.** And the Ki (ROCK1; average Ki)?
**A.** 35.4 nM

**Q.** How did the Ki (ROCK2; [1]) turn out when `CC1CNCCN1S(=O)(=O)c1cccc2cnccc12` (stereo not drawn) [Compound H7, reference compound] was run?
**A.** 125 nM

**Q.** How did the Ki (ROCK1; Avg, 10 μM ATP) turn out when `Clc1ccc(CN2CC[C@@H](Nc3ccc4[nH]ncc4c3)C2)cc1` [Compound 1.241, (R)-N-(1-(4-chlorobenzyl)pyrrolidin-3-yl)-1H-indazol-5-amine] was run?
**A.** 65.1 nM

**Q.** Which results are given for `CN(C)S(=O)(=O)Nc1cccc(CN2CCC[C@H](Nc3ccc4[nH]ncc4c3)C2)c1` [Compound 1.261]?
**A.** Ki (ROCK1; Avg, 10 μM ATP): 307 nM; Ki (ROCK1; average Ki): 307 nM
